Experimental findings from patent US9169477B2, “Compositions and methods for immunization against bacteria expressing a carbapenemase” (priority 2012, dated 2015) are described below.

Where only a bound is given, the exact number is not on record here.

The test system of experiment [1] is KPC-expressing Klebsiella pneumoniae strain KPC-KP1. Put plainly: Imipenem MIC of the test strain. The experiment is classed as cell-based. On the procedure: (§1) To determine the in vitro effects of the antibody generated in response to rNDM1 and rKPC vaccination, bacteria were incubated overnight at 37° C. in 10% serum plus Mueller-Hinton broth, per CLSI standards. […] Thus, the immune serum was directly cidal for NDM-1 expressing K. pneumoniae.

The subject of experiment [2] is NDM-1-expressing K. pneumoniae (ATCC BAA-2146). The experiment can be described thus: Imipenem MIC of the test strain. The experiment is classed as cell-based. The conditions noted are these: Klebsiella pneumoniae, ATCCBAA2146. On the procedure: as §1
The next experiment addresses T1, NDM-1 (Klebsiella pneumoniae, UniProt C7C422).
T1 construct: made in house
The experiment can be described thus: IgG antibody titers in serum of mice vaccinated with rNDM-1. The experiment is classed as in vivo. As to conditions: subcutaneous with Al(OH)3 adjuvant, booster at three weeks, serum two weeks after booster, vs control mice. The source says:
A vaccination program targeting KPC- and NDM-1 was developed. The KPC gene was cloned from a pan-resistant (to all antibiotics, including colistin) clinical lung isolate of K. pneumoniae acquired at a local hospital (KPC-KP1) and the NDM-1 gene was cloned from a clinical K. pneumoniae isolate (ATCC BAA-2146). Recombinant KPC (rKPC) and recombinant NDM-1 (rNDM-1) proteins were expressed, purified, and used for immunization of mice. The immunization of the mice consisted of subcutaneously injecting either rKPC or rNDM-1 with Al(OH)3 adjuvant. A booster immunization for each mouse was administered at three weeks post initial immunization. Two weeks after the booster, serum from immune and control mice were harvested. […] Thus, high titers of immune polyclonal antibodies have been generated against KPC and NDM-1.

For `C[C@@H](O)[C@H]1C(=O)N2C(C(=O)O)=C(SCCN=CN)C[C@H]12` [imipenem], the MIC in experiment [1] and in experiment [2] was greater than 32 µg/mL each time.

B1: rNDM-1: Recombinant NDM-1 protein cloned from K. pneumoniae ATCC BAA-2146, injected with Al(OH)3 adjuvant for immunization (protein, UniProt C7C422 29-270, looked up)
Metallo-beta-lactamase type 2: GEIRPTIGQQMETGDQRFGDLVFRQLAPNVWQHTSYLDMPGFGAVASNGLIVRDGGRVLVVDTAWTDDQTAQILNWIKQEINLPVALAVVTHAHQDKMGGMDALHAAGIATYANALSNQLAPQEGMVAAQHSLTFAANGWVEPATAPNFGPLKVFYPGPGHTSDNITVGIDGTDIAFGGCLIKDSKAKSLGNLGDADTEHYAASARAFGAAFPKASMIVMSHSAPDSRAAITHTARMADKLR
With B1, the “anti-NDM-1 IgG titers” value was “marked increase” with NDM-1 (listed as NDM-1) and “high titers” with NDM-1 (listed as rNDM1).

What is called MIC is the lowest concentration that inhibits growth of the organism.
